Values joined by “and” are separate entries in the source; they are usually repeats but may differ in a detail not shown here. Equal values may be shown once. Toxic doses and inconclusive results are not listed. How the source made its calls: active means survival T/C of 150% or more; inactive means T/C below 125% in these data.
System: P388 leukemia ip, CD2F1 mice, survival T/C
Assay: NCI In Vivo Anticancer Drug Screen. Data for tumor model P388 Leukemia (intraperitoneal) in CD2F1 (CDF1) mice
Settings: endpoint: median survival time, higher = longer survival
Summary of the method: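 Mice carrying the transplanted tumor received test compound or vehicle. Survival was recorded in each group, and the value is the treated-group measurement divided by that of the vehicle-treated control group.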

[1] = dose: 100.0 mg/kg/injection, schedule: Q04DX003 (ip), vehicle: Klucel (hydroxypropylcellulose) (HPC)
[2] = dose: 200.0 mg/kg/injection, schedule: Q04DX003 (ip), vehicle: Klucel (hydroxypropylcellulose) (HPC)
[3] = dose: 400.0 mg/kg/injection, schedule: Q04DX003 (ip), vehicle: Klucel (hydroxypropylcellulose) (HPC)
[4] = dose: 100.0 mg/kg/injection, schedule: Q04DX002 (ip), vehicle: Klucel (hydroxypropylcellulose) (HPC)
[5] = dose: 200.0 mg/kg/injection, schedule: Q04DX002 (ip), vehicle: Klucel (hydroxypropylcellulose) (HPC)
[6] = dose: 60.0 mg/kg/injection, schedule: Q01DX005 (ip), vehicle: Klucel (hydroxypropylcellulose) (HPC)
[7] = dose: 120.0 mg/kg/injection, schedule: Q01DX005 (ip), vehicle: Klucel (hydroxypropylcellulose) (HPC)
[8] = dose: 50.0 mg/kg/injection, schedule: Q01DX005 (ip), vehicle: saline with Tween-80
[9] = dose: 100.0 mg/kg/injection, schedule: Q01DX005 (ip), vehicle: saline with Tween-80
[10] = dose: 12.5 mg/kg/injection, schedule: Q01DX009 (ip), vehicle: saline
[11] = dose: 25.0 mg/kg/injection, schedule: Q01DX009 (ip), vehicle: saline
[12] = dose: 60.0 mg/kg/injection, schedule: Q01DX005 (ip), vehicle: saline with Tween-80
[13] = dose: 120.0 mg/kg/injection, schedule: Q01DX005 (ip), vehicle: saline with Tween-80
[14] = dose: 240.0 mg/kg/injection, schedule: Q01DX005 (ip), vehicle: saline with Tween-80
[15] = dose: 100.0 mg/kg/injection, schedule: Q01DX001 (ip), vehicle: saline with Tween-80
[16] = dose: 200.0 mg/kg/injection, schedule: Q01DX001 (ip), vehicle: saline with Tween-80
[17] = dose: 400.0 mg/kg/injection, schedule: Q01DX001 (ip), vehicle: saline with Tween-80

Measured: T/C

COc1ccc2c(=O)c(-c3ccc(OC)c(OC)c3OC)coc2c1
inactive: [1] 99 % of control | [2] 100 % of control | [3] 99 % of control

O=c1nc2n(CC(O)CN3CCCCC3)c3cc(Cl)ccc3nc-2c(=O)[nH]1 (configuration not stated)
inactive: dose: 6.25 mg/kg/injection, schedule: Q01DX005 (ip), vehicle: saline 103 % of control | dose: 12.5 mg/kg/injection, schedule: Q01DX005 (ip), vehicle: saline 106 % of control

CCOC(=O)CC1(C)c2nc(NC(C)=O)sc2Cc2sc(NC(C)=O)nc21
inactive: dose: 60.0 mg/kg/injection, schedule: Q01DX005 (ip), vehicle: saline 101 % of control | dose: 120.0 mg/kg/injection, schedule: Q01DX005 (ip), vehicle: saline 100 % of control | dose: 240.0 mg/kg/injection, schedule: Q01DX005 (ip), vehicle: saline 100 % of control

CC(=NCCCCN=C(C)c1cc(C)cc([N+](=O)[O-])c1O)c1cc(C)cc([N+](=O)[O-])c1O.[Co]
inactive: dose: 100.0 mg/kg/injection, schedule: Q05DX002 (ip), vehicle: saline with Tween-80 92 % of control | dose: 200.0 mg/kg/injection, schedule: Q05DX002 (ip), vehicle: saline with Tween-80 98 % of control | dose: 400.0 mg/kg/injection, schedule: Q05DX002 (ip), vehicle: saline with Tween-80 92 % of control

CC(C)=CCSc1ccccc1
inactive: [4] 104 % of control | [5] 106 % of control | dose: 400.0 mg/kg/injection, schedule: Q04DX002 (ip), vehicle: Klucel (hydroxypropylcellulose) (HPC) 109 % of control

Nc1ccnc(F)n1
inactive: [6] 100 % of control | [7] 106 % of control | dose: 240.0 mg/kg/injection, schedule: Q01DX005 (ip), vehicle: Klucel (hydroxypropylcellulose) (HPC) 106 % of control

CC(=O)OC1C2(CC3N4C(=O)C5(CO)SSC4(CC31O)C(=O)N5C)OC(C)C(C)(C)C2=O (configuration not stated)
inactive: dose: 0.08 mg/kg/injection, schedule: Q01DX009 (ip), vehicle: saline 101 % of control | dose: 0.15 mg/kg/injection, schedule: Q01DX009 (ip), vehicle: saline 108 % of control | dose: 0.3 mg/kg/injection, schedule: Q01DX009 (ip), vehicle: saline 111 % of control | dose: 0.31 mg/kg/injection, schedule: Q01DX009 (ip), vehicle: saline 107 % of control | dose: 0.6 mg/kg/injection, schedule: Q01DX009 (ip), vehicle: saline 111 % of control | dose: 0.63 mg/kg/injection, schedule: Q01DX009 (ip), vehicle: saline with Tween-80 97 % of control | dose: 0.63 mg/kg/injection, schedule: Q01DX009 (ip), vehicle: saline 107 % of control | dose: 0.78 mg/kg/injection, schedule: Q01DX009 (oral), vehicle: saline 104 % of control | dose: 1.2 mg/kg/injection, schedule: Q01DX009 (ip), vehicle: saline 99 % of control | dose: 1.25 mg/kg/injection, schedule: Q01DX009 (ip), vehicle: saline 103 % of control and 111 % of control | dose: 1.56 mg/kg/injection, schedule: Q01DX009 (oral), vehicle: saline 105 % of control | dose: 3.12 mg/kg/injection, schedule: Q01DX009 (oral), vehicle: saline 100 % of control and 101 % of control | dose: 6.25 mg/kg/injection, schedule: Q01DX009 (oral), vehicle: saline 95 % of control | dose: 12.5 mg/kg/injection, schedule: Q01DX009 (oral), vehicle: saline 89 % of control

COC(=O)c1c(C(N)=O)c(C)n(NC(N)=O)c1C
inactive: [8] 117 % of control | [9] 107 % of control | dose: 200.0 mg/kg/injection, schedule: Q01DX005 (ip), vehicle: saline with Tween-80 108 % of control

COC(=O)c1ccc(C(=O)OC)c2nc3ccccc3nc12
inactive: [6] 97 % of control | [7] 100 % of control

[Cl][Pt]([Cl])([Cl])[Cl]
inactive: [10] 123 % of control | [11] 111 % of control

CC(C)C(=O)OC1(C(C)c2ccccc2)C(=O)NC(=O)NC1=O (configuration not stated)
inactive: dose: 7.5 mg/kg/injection, schedule: Q01DX005 (ip), vehicle: Klucel (hydroxypropylcellulose) (HPC) 98 % of control | dose: 15.0 mg/kg/injection, schedule: Q01DX005 (ip), vehicle: Klucel (hydroxypropylcellulose) (HPC) 102 % of control

O=C(Nc1cc(-c2ccccc2)[nH]n1)c1ccc(Cl)cc1
inactive: [12] 102 % of control | [13] 93 % of control | [14] 93 % of control

O=C(O)Cn1/c(=N\N=C\c2ccccc2)sc2ccccc21
inactive: [15] 101 % of control | [16] 91 % of control | [17] 93 % of control

COC(=O)C/C(C)=N/SC(c1ccccc1)(c1ccccc1)c1ccccc1
inactive: dose: 100.0 mg/kg/injection, schedule: Q04DX002 (ip), vehicle: saline with Tween-80 95 % of control | dose: 200.0 mg/kg/injection, schedule: Q04DX002 (ip), vehicle: saline with Tween-80 101 % of control | dose: 400.0 mg/kg/injection, schedule: Q04DX002 (ip), vehicle: saline with Tween-80 94 % of control

CCN(CC)CCSC(=O)C(O)(c1ccccc1)c1ccccc1
inactive: dose: 2.5 mg/kg/injection, schedule: Q01DX009 (ip), vehicle: saline 108 % of control | dose: 5.0 mg/kg/injection, schedule: Q01DX009 (ip), vehicle: saline 117 % of control | dose: 10.0 mg/kg/injection, schedule: Q01DX009 (ip), vehicle: saline 101 % of control | [10] 100 % of control | dose: 20.0 mg/kg/injection, schedule: Q01DX009 (ip), vehicle: saline 90 % of control | [11] 98 % of control | dose: 40.0 mg/kg/injection, schedule: Q01DX009 (ip), vehicle: saline 101 % of control | dose: 50.0 mg/kg/injection, schedule: Q01DX009 (ip), vehicle: saline 101 % of control (2×) and 107 % of control

CN1CCOC(N2CCOCC2)C(C)(C)C1 (configuration not stated)
inactive: dose: 50.0 mg/kg/injection, schedule: Q01DX005 (ip), vehicle: saline 92 % of control | dose: 100.0 mg/kg/injection, schedule: Q01DX005 (ip), vehicle: saline 88 % of control | dose: 200.0 mg/kg/injection, schedule: Q01DX005 (ip), vehicle: saline 100 % of control

Cc1cc(C)c(-c2cc(C(O)C3OC4OC(C)(C)OC4C3O)on2)c(C)c1 (configuration not stated)
inactive: [8] 108 % of control | [9] 90 % of control

CC1(C)CC(=O)N(CN2CCCCC2)C(=O)C1
inactive: [4] 114 % of control | [5] 120 % of control

CCN(CC)CCC[Si]1(C)c2ccccc2CCc2ccccc21
inactive: dose: 25.0 mg/kg/injection, schedule: Q04DX003 (ip), vehicle: saline 111 % of control | dose: 50.0 mg/kg/injection, schedule: Q04DX003 (ip), vehicle: saline 102 % of control | dose: 100.0 mg/kg/injection, schedule: Q04DX003 (ip), vehicle: saline 92 % of control

CC1C=Cc2ccccc2NC1C (configuration not stated)
inactive: [12] 101 % of control | [13] 102 % of control | [14] 97 % of control

FC(F)(F)c1ccc2c(N/N=C/c3ccc(N(CCCl)CCCl)cc3)ccnc2c1
inactive: [1] 111 % of control | [2] 99 % of control | [3] 90 % of control

CS(=O)(=O)OCCF
inactive: dose: 0.78 mg/kg/injection, schedule: Q01DX009 (ip), vehicle: saline with Tween-80 97 % of control | dose: 1.56 mg/kg/injection, schedule: Q01DX009 (ip), vehicle: saline with Tween-80 100 % of control | dose: 3.12 mg/kg/injection, schedule: Q01DX009 (ip), vehicle: saline with Tween-80 103 % of control | dose: 3.96 mg/kg/injection, schedule: Q04DX003 (ip), vehicle: saline 109 % of control | dose: 6.0 mg/kg/injection, schedule: Q04DX003 (ip), vehicle: saline 104 % of control | dose: 6.25 mg/kg/injection, schedule: Q01DX009 (ip), vehicle: saline with Tween-80 105 % of control and 111 % of control | dose: 9.0 mg/kg/injection, schedule: Q04DX003 (ip), vehicle: saline 118 % of control | dose: 12.5 mg/kg/injection, schedule: Q01DX009 (ip), vehicle: saline with Tween-80 89 % of control

O=C(NC(=S)c1ccc(Br)cc1)NS(=O)(=O)c1ccc(Cl)cc1
inactive: [15] 96 % of control | [16] 92 % of control | [17] 102 % of control

C/C(NN(C)C)=C(\C#N)C(=O)/C=C/c1cccs1
inactive: [12] 105 % of control | [13] 98 % of control | [14] 96 % of control

Reference: PubChem BioAssay AID330 (DTP/NCI, 2004)
